pIC50, pKd: −log10 of the molar value. Activity calls are given as the source filed them. The rule behind the calls is not given here.
Columns and labels:
[1] = target: Programmed cell death protein 1/Programmed cell death 1 ligand 1 (Homo sapiens, UniProt Q9NZQ7)
Description: Inhibition of human PD-1/PD-L1 interaction by HTRF analysis

MDA-MB-231 [2] = assay: Antiproliferative activity against human MDA-MB-231 cells as cell killing incubated for 6 days by CCK-8 assay; settings: MDA-MB-231, 144 h
4T1 [3] = assay: Antiproliferative activity against mouse 4T1 cells as cell killing incubated for 6 days by CCK-8 assay; settings: 4T1, 144 h
Jurkat = assay: Antiproliferative activity against human Jurkat cells as cell killing incubated for 6 days by CCK-8 assay; settings: 144 h
4T1 [4] = assay: Antitumor activity against mouse 4T1 cells implanted in BALB/c mouse assessed as increase in percentage of CD3+ CD4+ cells in spleen at 15 mg/kg, ip qd administered for 14 days by flow cytometry analysis (reference value: 6.72%); type: functional; settings: time 14 day
4T1 [5] = assay: Antitumor activity against mouse 4T1 cells implanted in BALB/c mouse assessed as increase in percentage of CD3+ CD8+ cells in spleen at 15 mg/kg, ip qd administered for 14 days by flow cytometry analysis (reference value: 3.34%); type: functional; settings: time 14 day
4T1 [6] = assay: Antitumor activity against mouse 4T1 cells implanted in BALB/c mouse assessed as increase in percentage of CD3+ CD4+ cells in tumor at 15 mg/kg, ip qd administered for 14 days by flow cytometry analysis (reference value: 0.32%); type: functional; settings: time 14 day
4T1 [7] = assay: Antitumor activity against mouse 4T1 cells implanted in BALB/c mouse assessed as increase in percentage of CD3+ CD8+ cells in tumor at 15 mg/kg, ip qd administered for 14 days by flow cytometry analysis (reference value: 0.64%); type: functional; settings: time 14 day
[8] = AUC (0 to infinity) in ICR mouse at 1 mg/kg, iv measured upto 24 hrs by LCMS analysis; type: ADME, organism-based; settings: in vivo
[9] = AUC (0 to infinity) in ICR mouse at 10 mg/kg, IG measured upto 24 hrs by LCMS analysis; type: ADME, organism-based; settings: in vivo, po
[10] = MRT (0 to t) in ICR mouse at 1 mg/kg, iv measured upto 24 hrs by LCMS analysis; type: ADME, organism-based; settings: in vivo
[11] = target: Programmed cell death 1 ligand 1 (Mus musculus, UniProt Q9EP73); assay: Binding affinity to his-tagged mouse PD-L1 expressed in HEK293 cells assessed as dissociation constant by SPR analysis
MDA-MB-231 [12] = assay: Induction of cell death in human MDA-MB-231 cells incubated for 6 days by CCK-8 assay; type: functional, cell-based; settings: time 6.0 day
PBMC = assay: Induction of cell death in human PBMC cells incubated for 6 days by CCK-8 assay; type: functional, cell-based; settings: time 6.0 day
MDA-MB-231 [13] = assay: Antitumor immunity activity against human MDA-MB-231 cells co-cultured with human PBMC assessed as cell killing incubated for 12 hrs; type: functional, cell-based
[14] = Half life in ICR mouse at 1 mg/kg, iv measured upto 24 hrs by LCMS analysis; type: ADME, organism-based; settings: in vivo
[15] = Half life in ICR mouse at 10 mg/kg, IG measured upto 24 hrs by LCMS analysis; type: ADME, organism-based; settings: in vivo, po
[16] = Tmax in ICR mouse at 10 mg/kg, IG measured upto 24 hrs by LCMS analysis; type: ADME, organism-based; settings: in vivo, po
[17] = Cmax in ICR mouse at 10 mg/kg, IG measured upto 24 hrs by LCMS analysis; type: ADME, organism-based; settings: in vivo, po
[18] = AUC (0 to t) in ICR mouse at 1 mg/kg, iv measured upto 24 hrs by LCMS analysis; type: ADME, organism-based; settings: in vivo
[19] = AUC (0 to t) in ICR mouse at 10 mg/kg, IG measured upto 24 hrs by LCMS analysis; type: ADME, organism-based; settings: in vivo, po
[20] = MRT (0 to t) in ICR mouse at 10 mg/kg, IG measured upto 24 hrs by LCMS analysis; type: ADME, organism-based; settings: in vivo, po
[21] = MRT (0 to infinity) in ICR mouse at 1 mg/kg, iv measured upto 24 hrs by LCMS analysis; type: ADME, organism-based; settings: in vivo
[22] = MRT (0 to infinity) in ICR mouse at 10 mg/kg, IG measured upto 24 hrs by LCMS analysis; type: ADME, organism-based; settings: in vivo, po
[23] = Clearance in ICR mouse at 1 mg/kg, iv measured upto 24 hrs by LCMS analysis; type: ADME, organism-based; settings: in vivo
[24] = Oral bioavailability in ICR mouse at 1 mg/kg measured upto 24 hrs by LCMS analysis; type: ADME, organism-based; settings: in vivo
[25] = Acute toxicity in ICR mouse at 250 to 500 mg/kg, IG measured for 7 days; type: organism-based; settings: in vivo, po, 168 h, dose 250-500 mg/kg, time 7 day
4T1 [26] = assay: Antitumor activity against mouse 4T1 cells implanted in BALB/c mouse assessed as tumor growth inhibition at 5 mg/kg, IG administered twice a day for 14 days; settings: 4T1, po, 336 h, read-out: TGI
4T1 [27] = assay: Antitumor activity against mouse 4T1 cells implanted in BALB/c mouse assessed as tumor growth inhibition at 10 mg/kg, IG administered twice a day for 14 days; settings: 4T1, po, 336 h, read-out: TGI
[28] = Toxicity in BALB/c mouse implanted with mouse 4T1 cells assessed as body weight loss at 5 to 10 mg/kg, IG administered twice a day for 14 days; type: organism-based; settings: in vivo, po, 336 h, dose 5-10 mg/kg, time 14 day
[29] = Toxicity in BALB/c mouse implanted with mouse 4T1 cells assessed as side effect at 5 to 10 mg/kg, IG administered twice a day for 14 days; type: organism-based; settings: in vivo, po, 336 h, dose 5-10 mg/kg, time 14 day
[30] = Toxicity in BALB/c mouse implanted with mouse 4T1 cells assessed as morphological changes in heart at 5 to 10 mg/kg, IG administered twice a day for 14 days by H and E staining based analysis; type: organism-based; settings: in vivo, po, 336 h, dose 5-10 mg/kg, time 14 day
[31] = Toxicity in BALB/c mouse implanted with mouse 4T1 cells assessed as morphological changes in liver at 5 to 10 mg/kg, IG administered twice a day for 14 days by H and E staining based analysis; type: organism-based; settings: in vivo, po, 336 h, dose 5-10 mg/kg, time 14 day
[32] = Toxicity in BALB/c mouse implanted with mouse 4T1 cells assessed as morphological changes in spleen at 5 to 10 mg/kg, IG administered twice a day for 14 days by H and E staining based analysis; type: organism-based; settings: in vivo, po, 336 h, dose 5-10 mg/kg, time 14 day
[33] = Toxicity in BALB/c mouse implanted with mouse 4T1 cells assessed as morphological changes in lung at 5 to 10 mg/kg, IG administered twice a day for 14 days by H and E staining based analysis; type: organism-based; settings: in vivo, po, 336 h, dose 5-10 mg/kg, time 14 day
[34] = Toxicity in BALB/c mouse implanted with mouse 4T1 cells assessed as morphological changes in kidney at 5 to 10 mg/kg, IG administered twice a day for 14 days by H and E staining based analysis; type: organism-based; settings: in vivo, po, 336 h, dose 5-10 mg/kg, time 14 day
[35] = Toxicity in BALB/c mouse implanted with mouse 4T1 cells assessed as morphological changes in tumor at 5 to 10 mg/kg, IG administered twice a day for 14 days by H and E staining based analysis; type: organism-based; settings: in vivo, po, 336 h, dose 5-10 mg/kg, time 14 day
4T1 [36] = assay: Antitumor activity against mouse 4T1 cells implanted in BALB/c mouse assessed as reduction in ki-67 expression at 10 mg/kg, IG administered twice a day for 14 days by immunohistochemistry analysis; type: functional, organism-based; settings: time 14.0 day
[37] = target: Programmed cell death protein 1 (Homo sapiens, UniProt Q15116); assay: Inhibition of human recombinant PD-1 by HTRF analysis
Sequence of Programmed cell death protein 1 (Q15116 whole entry): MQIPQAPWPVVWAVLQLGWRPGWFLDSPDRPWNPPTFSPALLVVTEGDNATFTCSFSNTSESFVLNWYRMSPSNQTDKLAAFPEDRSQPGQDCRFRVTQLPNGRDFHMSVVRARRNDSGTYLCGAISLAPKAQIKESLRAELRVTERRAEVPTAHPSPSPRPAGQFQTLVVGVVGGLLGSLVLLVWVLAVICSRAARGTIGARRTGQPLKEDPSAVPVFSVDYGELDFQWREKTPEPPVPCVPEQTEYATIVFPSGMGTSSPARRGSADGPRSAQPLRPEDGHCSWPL

Sequence of Programmed cell death protein 1/Programmed cell death 1 ligand 1 (Q15116 whole entry): as above
Sequence of Programmed cell death protein 1/Programmed cell death 1 ligand 1 (Q9NZQ7 whole entry): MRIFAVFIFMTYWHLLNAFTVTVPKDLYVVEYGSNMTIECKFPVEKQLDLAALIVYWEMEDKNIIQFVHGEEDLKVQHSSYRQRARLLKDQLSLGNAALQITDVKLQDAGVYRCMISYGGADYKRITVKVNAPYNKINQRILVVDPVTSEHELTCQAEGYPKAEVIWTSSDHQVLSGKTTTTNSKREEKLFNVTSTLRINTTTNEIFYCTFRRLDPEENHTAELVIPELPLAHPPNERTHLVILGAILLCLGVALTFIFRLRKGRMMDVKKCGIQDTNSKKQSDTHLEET
Sequence of Programmed cell death 1 ligand 1 (Q9EP73 whole entry): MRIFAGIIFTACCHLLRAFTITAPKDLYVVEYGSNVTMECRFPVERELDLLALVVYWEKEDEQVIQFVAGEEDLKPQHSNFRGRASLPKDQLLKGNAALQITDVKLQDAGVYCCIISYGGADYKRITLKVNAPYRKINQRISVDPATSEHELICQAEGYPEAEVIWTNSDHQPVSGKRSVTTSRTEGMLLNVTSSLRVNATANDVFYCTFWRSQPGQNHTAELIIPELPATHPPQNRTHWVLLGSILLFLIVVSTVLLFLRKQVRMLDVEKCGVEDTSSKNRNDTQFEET

OCCN1CCc2nc(OCc3cccc(-c4ccccc4Cl)c3Cl)ccc2C1
pIC50 [1]: 7.02

CCOC(=O)CN1CCc2nc(C(=O)Nc3cccc(-c4cccc(OC(C)C)c4F)c3Cl)ccc2C1
pIC50 [1]: < 6.00

CC(C)OC(=O)CN1CCc2nc(OCc3cccc(-c4ccccc4F)c3Cl)ccc2C1
pIC50 [1]: 6.36

CCOC(=O)CCN1CCc2nc(OCc3cccc(-c4ccccc4F)c3Cl)ccc2C1
pIC50 [1]: 6.62

Cc1c(COc2ccc3c(n2)CCN(CCO)C3)cccc1-c1ccccc1Cl
pIC50 [1]: 6.66

OCCN1CCc2nc(OCc3cccc(-c4ccccc4F)c3F)ccc2C1
pIC50 [1]: 6.98

COc1nc(OCc2cccc(-c3ccccc3)c2C)ccc1CNCCNC(C)=O
pIC50 (MDA-MB-231 [2]): 4.71 | pIC50 (4T1 [3]): 5.28 | pIC50 (Jurkat): 5.36 | Activity (4T1 [4]): 5.4% | Activity (4T1 [5]): 2.52% | Activity (4T1 [6]): 0.58% | Activity (4T1 [7]): 1.24%

CC(C)Oc1cccc(-c2cccc(NC(=O)c3ccc4c(n3)CCN(CCO)C4)c2Cl)c1F
pIC50 [1]: 7.08

CCOC(=O)CN1CCc2nc(C(=O)Nc3cccc(-c4cccc(Cl)c4F)c3Cl)ccc2C1
pIC50 [1]: < 6.00

CCOC(=O)C(C)N1CCc2nc(OCc3cccc(-c4ccccc4F)c3Cl)ccc2C1 (centres undefined)
pIC50 [1]: 6.23

OCCN1CCc2nc(OCc3cccc(-c4ccccc4F)c3Cl)ccc2C1
pIC50 [1]: 7.70

CCOC(=O)CN1CCc2nc(C(=O)Nc3cccc(-c4cccc(C#N)c4F)c3Cl)ccc2C1
pIC50 [1]: < 6.00

O=C(Nc1cccc(-c2cccc(F)c2F)c1Cl)c1ccc2c(n1)CCN(CCO)C2
pIC50 [1]: 7.70

O=C(O)CN1CCc2nc(OCc3cccc(-c4ccccc4F)c3Cl)ccc2C1
AUC(0-inf) [8]: 1820 ng·h/mL | AUC(0-inf) [9]: 10500 ng·h/mL | MRT last at 24 h [10]: 3.7 h | pKd [11]: 3.41 | pIC50 (MDA-MB-231 [2]): 4.81 | pIC50 (4T1 [3]): 4.11 | pIC50 (Jurkat): 4.27 | Activity (MDA-MB-231 [12]): Active | Activity (PBMC): Active | Activity (MDA-MB-231 [13]): Active | half-life [14]: 3.51 h | half-life [15]: 4.95 h | Tmax [16]: 0.25 h | Cmax [17]: 1950 ng/mL | AUC(0-t) at 24 h [18]: 1800 ng·h/mL | AUC(0-t) at 24 h [19]: 10200 ng·h/mL | MRT last at 24 h [20]: 6.05 h | MRT inf [21]: 3.86 h | MRT inf [22]: 7.35 h | clearance [23]: 9.55 mL/min/kg | bioavailability [24]: 58% | Activity [25]: Non-Toxic | inhibition in vivo at 5 mg/kg (4T1 [26]): 49% | inhibition in vivo at 10 mg/kg (4T1 [27]): 66% | Activity [28]: Non-Toxic | Activity [29]: Non-Toxic | Activity [30]: Non-Toxic | Activity [31]: Non-Toxic | Activity [32]: Non-Toxic | Activity [33]: Non-Toxic | Activity [34]: Non-Toxic | Activity [35]: Toxic | Activity (4T1 [36]): Active

CC(C(=O)O)N1CCc2nc(OCc3cccc(-c4ccccc4F)c3Cl)ccc2C1 (centres undefined)
pIC50 [1]: 7.50

COC(=O)CN1CCc2nc(OCc3cccc(-c4ccccc4F)c3Cl)ccc2C1
pIC50 [1]: 6.43

Cc1c(Nc2nccc3cc(CN4CC[C@@H](O)C4)cnc23)cccc1-c1cccc(-c2nc3ccc(CN4CC[C@@H](C(=O)O)C4)c(C#N)c3o2)c1C
pIC50 [37]: 8.51

OCCN1CCc2nc(OCc3cccc(-c4ccccc4Cl)c3F)ccc2C1
pIC50 [1]: 6.99

NC(=O)CN1CCc2nc(OCc3cccc(-c4ccccc4F)c3Cl)ccc2C1
pIC50 [1]: 6.80

CCOC(=O)CN1CCc2nc(C(=O)Nc3cccc(-c4cccc(F)c4F)c3Cl)ccc2C1
pIC50 [1]: 4.47

Cc1ccccc1-c1cccc(COc2ccc3c(n2)CCN(CCO)C3)c1C
pIC50 [1]: 6.39

N#Cc1cccc(-c2cccc(NC(=O)c3ccc4c(n3)CCN(CCO)C4)c2Cl)c1F
pIC50 [1]: 7.23

Cc1c(COc2ccc3c(n2)CCN(CCO)C3)cccc1-c1ccccc1F
pIC50 [1]: 6.77

O=C(Nc1cccc(-c2ccccc2F)c1Cl)c1ccc2c(n1)CCN(CCO)C2
pIC50 [1]: 7.67

Cc1c(COc2ccc3c(n2)CCN(CCO)C3)cccc1-c1ccccc1
pIC50 [1]: 6.64

O=C(Nc1cccc(-c2cccc(Cl)c2F)c1Cl)c1ccc2c(n1)CCN(CCO)C2
pIC50 [1]: 7.62
